From publication PMC8413292, “Small-molecule polymerase inhibitor protects non-human primates from measles and reduces shedding” (Nature Communications, 2021)
“And” between values parts separate entries of the source, which are not always exact repeats. Equal entries are not always repeated.

How the values were obtained:
[1] = Trough serum concentration during 14-day b.i.d. oral treatment of infected squirrel monkeys; details: for ERDRP-0519 trough serum concentration: 50 mg/kg b.i.d. oral
Method: (§1) All animal experiments were carried out in compliance with the regulations of German animal protection laws and authorized by the Regierungspräsidium Darmstadt, Germany (Dezernat V54 – Veterinärwesen und Verbraucherschutz, Hilpertstrasse 31, 64295 Darmstadt). Adult male and female squirrel monkeys (Saimiri sciureus) were obtained from BioPRIM, 31450 Baziege, or CNRS 0846 Primatologie, 13790 Rousset, France. Each experimental group was housed in a separate room, and animals of the same sex were caged together within the respective groups. For the single-dose pharmacokinetic experiment, animals were anesthetized, and the drug was given through a stomach tube at a concentration of 50 mg/kg bodyweight. Blood samples were collected after 15, 30, and 60 min, and 2, 3, 6, and 24 h. For efficacy assessment, groups of 6 animals were left untreated or treated with 50 mg/kg of ERDRP-0519 twice daily for two weeks, starting either 12 h before or 3 or 7 days after intranasal infection with 10^6 TCID50 of MV/FrankfurtMain.DEU/17.11. Clinical signs, rectal temperature, and weight were recorded daily, and throat swabs and blood samples were collected before infection and twice weekly thereafter. On day 21 post-infection, the animals were euthanized, necropsied, and samples were collected for histological analysis.
Drug concentrations were determined using an internal standard and a reversed phase isocratic HPLC method with positive ion electrospray ionization (ESI) mass spectrometry detection (LC/MS/MS) on an AB-SCIEX API 5500 MS/MS instrument (5 μl injection volume). Pharmacokinetic parameters were estimated using WinNonlin 5.3 (Pharsight).

[2] = test system: MV/FrankfurtMain.DEU/17.11 (genotype D8); assay: Clinical signs (rash score) in MeV-infected squirrel monkeys; details: for animals that developed spots or mild rash in the face or inguinal region: 50 mg/kg b.i.d. 14 days
Method: as §1

[3] = test system: MV/FrankfurtMain.DEU/17.11 (genotype D8); assay: White blood cell counts from whole blood; type: in vivo, squirrel monkeys (Saimiri sciureus); details: for WBC Mean Diff, untreated vs. prophylactic / WBC Mean Diff, untreated vs. therapeutic (d7) / WBC Mean Diff, untreated vs. therapeutic(d3): Dunnett's multiple comparisons test; for Cells [10^3/mm^3], white blood cells / Cells/ml, white blood cells / Counted Cells (Total), white blood cells: individual animals
Method: White blood cell counts, viral load quantification in PBMCs, and quantification of neutralizing antibody titers were performed as follows: for white blood cell counts, blood was diluted 1:100 in 3% acetic acid and cells were counted using a Neubauer chamber. For viral load quantification in PBMCs, blood was centrifuged at 3000 rpm for 15 min and serum was frozen at −20 °C until further use. Red blood cell lysis was performed and the remaining PBMCs were counted using a Neubauer chamber. Viral titers in PBMCs were quantified in quadruplicates using limited dilution method and calculated as TCID50/10^6 PBMCs. Neutralizing antibody titers were quantified by incubating MeV with 2-fold serial dilutions of the respective serum for 20 min at room temperature in quadruplicates. Vero/hSLAM cells were added and incubated for 3 days at 37 °C. Neutralizing antibody titers are expressed as the reciprocal of the highest serum dilution showing no signs of infection. For virus titration from throat swabs, swabs were placed in 150 μl DMEM with 3% penicillin/streptomycin and the titer was quantified by limited dilution method.

## Cn1nc(C(F)(F)F)cc1C(=O)Nc1ccc(S(=O)(=O)N2CCCC[C@H]2CCN2CCOCC2)cc1 [ERDRP-0519]
[1]; 0 days post-treatment, individual animals
  ERDRP-0519 trough serum concentration: 0 µM and 0.05627 µM and 0.03323 µM
[1]; 3 days post-treatment, individual animals
  ERDRP-0519 trough serum concentration: 0.9158 µM and 2.53 µM and 4.796 µM and 7.1567 µM and 0.8139 µM and 7.176 µM and 3.758 µM and 1.907 µM and 3.569 µM and 2.058 µM and 2.606 µM and 7.006 µM and 2.984 µM and 1.541 µM and 2.285 µM
[1]; 7 days post-treatment, individual animals
  ERDRP-0519 trough serum concentration: 0.9763 µM and 1.28 µM and 2.908 µM and 3.21 µM and 2.4548 µM and 4.759 µM and 3.323 µM and 2.832 µM and 2.134 µM and 0.6741 µM and 2.096 µM and 3.644 µM and 0.525 µM and 0.5703 µM
[1]; 10 days post-treatment, individual animals
  ERDRP-0519 trough serum concentration: 1.654 µM and 2.228 µM and 2.832 µM and 4.4753 µM and 4.4 µM and 4.664 µM and 1.699 µM and 1.669 µM and 0.9989 µM and 0.9857 µM and 2.153 µM and 3.116 µM and 0.6949 µM and 1.573 µM and 0.608 µM
[1]; 14 days post-treatment, individual animals
  ERDRP-0519 trough serum concentration: 0.08309 µM and 0.0727 µM and 0.355 µM and 0.6534 µM and 1.862 µM and 2.172 µM and 2.474 µM and 1.513 µM and 0.2417 µM and 0.676 µM and 1.412 µM and 0.1537 µM and 0.3267 µM and 0.02398 µM
[1]; both, monkey, serum, oral, 50 mg/kg twice daily, ERDRP-0519 serum conc., therapeutic(d7) group, day 7 post-infection, individual animals
  concentration at 7 days post-infection: 0 nM
[1]; monkey, in vivo
  Mean drug plasma concentration of all animals over the full study period: ~ 1.6 µM
[1]; multi-dose b.i.d., 15 animals
  drug accumulation on repeat-dosing: does not result in ERDRP-0519 accumulation
[2]; all treated groups
  severe or generalized rash: none of the treated animals experienced severe or generalized rash
[2]; day 3 therapeutic group
  animals that developed spots or mild rash in the face or inguinal region: Four of six animals
[2]; day 3 therapeutic group, day 15 post-infection, authors conclude unrelated to drug or MeV
  deaths during the study: One animal in the day 3 therapeutic group developed mild diarrhea and deceased
[2]; day 7 therapeutic group
  animals that developed spots or mild rash in the face or inguinal region: all animals
[2]; prophylactic group, 50 mg/kg b.i.d. 14 days from 12 h prior to infection
  measles-typical clinical signs: remained free of measles-typical clinical signs
[3]; Row 1 (0 dpi)
  WBC Mean Diff, untreated vs. prophylactic: 0.14 10^3cells/mm^3
  WBC Mean Diff, untreated vs. therapeutic (d7): 2 10^3cells/mm^3
  WBC Mean Diff, untreated vs. therapeutic(d3): 0.75 10^3cells/mm^3
[3]; Row 2 (3 dpi)
  WBC Mean Diff, untreated vs. prophylactic: 0.875 10^3cells/mm^3
  WBC Mean Diff, untreated vs. therapeutic (d7): -2.625 10^3cells/mm^3
  WBC Mean Diff, untreated vs. therapeutic(d3): -1.042 10^3cells/mm^3
[3]; Row 3 (7 dpi)
  WBC Mean Diff, untreated vs. prophylactic: -2.333 10^3cells/mm^3
  WBC Mean Diff, untreated vs. therapeutic (d7): -0.3333 10^3cells/mm^3
  WBC Mean Diff, untreated vs. therapeutic(d3): -1.375 10^3cells/mm^3
[3]; Row 4 (10 dpi)
  WBC Mean Diff, untreated vs. prophylactic: -1.958 10^3cells/mm^3
  WBC Mean Diff, untreated vs. therapeutic (d7): -0.5417 10^3cells/mm^3
  WBC Mean Diff, untreated vs. therapeutic(d3): -1.167 10^3cells/mm^3
[3]; Row 5 (14 dpi)
  WBC Mean Diff, untreated vs. prophylactic: -1.375 10^3cells/mm^3
  WBC Mean Diff, untreated vs. therapeutic (d7): -0.25 10^3cells/mm^3
  WBC Mean Diff, untreated vs. therapeutic(d3): -4.767 10^3cells/mm^3
[3]; Row 6 (17 dpi)
  WBC Mean Diff, untreated vs. prophylactic: -1.667 10^3cells/mm^3
  WBC Mean Diff, untreated vs. therapeutic (d7): -1.333 10^3cells/mm^3
  WBC Mean Diff, untreated vs. therapeutic(d3): -1.533 10^3cells/mm^3
[3]; Row 7 (21 dpi)
  WBC Mean Diff, untreated vs. prophylactic: -1.125 10^3cells/mm^3
  WBC Mean Diff, untreated vs. therapeutic (d7): -1.875 10^3cells/mm^3
  WBC Mean Diff, untreated vs. therapeutic(d3): -2.402 10^3cells/mm^3
[3]; day 3 treatment group
  leukopenia (total white blood cell counts): no leukopenia was observed
[3]; day 7 treatment group
  total white blood cell counts: a trend for lower total white blood cell counts, but this was not significant
[3]; prophylactic group
  leukopenia (total white blood cell counts): no leukopenia was observed
[3]; prophylactic group, 0 dpi
  Cells [10^3/mm^3], white blood cells: 7.5 10^3/mm^3 and 4.5 10^3/mm^3 and 5.5 10^3/mm^3 and 2.25 10^3/mm^3 and 10.75 10^3/mm^3
  Cells/ml, white blood cells: 4.50E+06 Cells/ml and 5.50E+06 Cells/ml and 2.25E+06 Cells/ml and 1.08E+07 Cells/ml and 7.50E+06 Cells/ml
  Counted Cells (Total), white blood cells: 30 and 18 and 22 and 9 and 43
[3]; prophylactic group, 3 dpi
  Cells [10^3/mm^3], white blood cells: 4.75 10^3/mm^3 (3×) and 4.25 10^3/mm^3 and 4 10^3/mm^3 and 7.25 10^3/mm^3
  Cells/ml, white blood cells: 4.75E+06 Cells/ml (3×) and 4.25E+06 Cells/ml and 4.00E+06 Cells/ml and 7.25E+06 Cells/ml
  Counted Cells (Total), white blood cells: 19 (3×) and 17 and 16 and 29
[3]; prophylactic group, 7 dpi
  Cells [10^3/mm^3], white blood cells: 6 10^3/mm^3 (2×) and 7 10^3/mm^3 and 4.75 10^3/mm^3 (2×) and 6.75 10^3/mm^3
  Cells/ml, white blood cells: 6.00E+06 Cells/ml (2×) and 7.00E+06 Cells/ml and 4.75E+06 Cells/ml (2×) and 6.75E+06 Cells/ml
  Counted Cells (Total), white blood cells: 24 (2×) and 28 and 19 (2×) and 27
[3]; prophylactic group, 10 dpi
  Cells [10^3/mm^3], white blood cells: 4.75 10^3/mm^3 (2×) and 6.5 10^3/mm^3 and 3 10^3/mm^3 and 3.75 10^3/mm^3 and 2 10^3/mm^3
  Cells/ml, white blood cells: 4.75E+06 Cells/ml (2×) and 6.50E+06 Cells/ml and 3.00E+06 Cells/ml and 3.75E+06 Cells/ml and 2.00E+06 Cells/ml
  Counted Cells (Total), white blood cells: 19 (2×) and 26 and 12 and 15 and 8
[3]; prophylactic group, 14 dpi
  Cells [10^3/mm^3], white blood cells: 6 10^3/mm^3 and 3 10^3/mm^3 and 5 10^3/mm^3 (2×) and 3.75 10^3/mm^3 and 2.75 10^3/mm^3
  Cells/ml, white blood cells: 3.00E+06 Cells/ml and 5.00E+06 Cells/ml (2×) and 3.75E+06 Cells/ml and 2.75E+06 Cells/ml and 6.00E+06 Cells/ml
  Counted Cells (Total), white blood cells: 24 and 12 and 20 (2×) and 15 and 11
[3]; prophylactic group, 17 dpi
  Cells [10^3/mm^3], white blood cells: 4.75 10^3/mm^3 and 5.25 10^3/mm^3 and 5.5 10^3/mm^3 and 3.25 10^3/mm^3 and 6.5 10^3/mm^3 and 2.25 10^3/mm^3
  Cells/ml, white blood cells: 5.25E+06 Cells/ml and 5.50E+06 Cells/ml and 3.25E+06 Cells/ml and 6.50E+06 Cells/ml and 2.25E+06 Cells/ml and 4.75E+06 Cells/ml
  Counted Cells (Total), white blood cells: 19 and 21 and 22 and 13 and 26 and 9
[3]; prophylactic group, 21 dpi
  Cells [10^3/mm^3], white blood cells: 5.25 10^3/mm^3 and 3.5 10^3/mm^3 and 7.75 10^3/mm^3 and 2.25 10^3/mm^3 (2×) and 5 10^3/mm^3
